# Measurements taken from ChEMBL document CHEMBL6096715, “Novel TYK2 Inhibitors for Treating Autoimmune and Inflammatory Diseases” (ACS Med Chem Lett, 2025).
# Target: Non-receptor tyrosine-protein kinase TYK2 (Homo sapiens, UniProt P29597)
# Sequence (P29597 whole entry): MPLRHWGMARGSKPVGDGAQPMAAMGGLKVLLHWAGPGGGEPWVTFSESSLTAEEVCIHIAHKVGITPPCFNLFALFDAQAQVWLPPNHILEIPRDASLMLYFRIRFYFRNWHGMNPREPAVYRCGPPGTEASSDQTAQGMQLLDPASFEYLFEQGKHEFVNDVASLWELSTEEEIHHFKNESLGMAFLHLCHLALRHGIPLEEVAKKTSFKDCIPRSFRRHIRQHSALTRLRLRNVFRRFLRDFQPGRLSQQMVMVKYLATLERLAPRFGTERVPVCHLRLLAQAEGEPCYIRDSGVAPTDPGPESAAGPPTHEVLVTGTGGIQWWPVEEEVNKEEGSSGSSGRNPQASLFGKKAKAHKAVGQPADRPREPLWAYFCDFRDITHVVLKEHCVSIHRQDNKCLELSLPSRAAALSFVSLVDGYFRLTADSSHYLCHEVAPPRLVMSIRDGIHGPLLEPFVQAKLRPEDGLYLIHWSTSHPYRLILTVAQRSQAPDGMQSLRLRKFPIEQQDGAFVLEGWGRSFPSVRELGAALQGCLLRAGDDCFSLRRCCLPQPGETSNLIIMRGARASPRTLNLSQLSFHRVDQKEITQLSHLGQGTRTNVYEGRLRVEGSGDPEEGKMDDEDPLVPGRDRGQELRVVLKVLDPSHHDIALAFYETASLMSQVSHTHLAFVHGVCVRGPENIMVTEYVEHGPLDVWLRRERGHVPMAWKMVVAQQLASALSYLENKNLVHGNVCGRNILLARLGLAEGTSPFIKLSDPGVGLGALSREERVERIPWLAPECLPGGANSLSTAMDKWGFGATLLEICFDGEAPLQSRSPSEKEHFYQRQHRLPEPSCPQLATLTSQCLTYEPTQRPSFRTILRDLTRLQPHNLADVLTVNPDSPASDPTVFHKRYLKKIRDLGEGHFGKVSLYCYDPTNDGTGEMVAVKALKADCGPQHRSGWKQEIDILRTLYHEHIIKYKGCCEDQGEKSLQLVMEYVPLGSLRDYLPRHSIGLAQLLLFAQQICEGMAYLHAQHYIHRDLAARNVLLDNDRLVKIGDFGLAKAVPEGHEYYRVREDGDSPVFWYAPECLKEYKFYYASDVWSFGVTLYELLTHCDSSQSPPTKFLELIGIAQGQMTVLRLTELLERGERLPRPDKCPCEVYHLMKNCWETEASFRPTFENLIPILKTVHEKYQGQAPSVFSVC
structure (smiles),measurement,value
Cn1cc(-c2cc3c(N4C[C@H]5CC[C@@H](C4)N5[C@H]4C[C@@H](C#N)C4(C)C)ccnn3c2)cn1,IC50,2.33 nM
